Laboratory results as given in US20070179110A1, “EXPRESSION OF IMMUNOGENIC SUBSTANCES” (Mayo Foundation for Medical Education and Research, priority 1997, published 2007).

What was measured:
Jurkat cells = experiment: Anti-CD3ε induced IL-2 secretion of Jurkat cells (IL-2 release assay); assay type: cell-based; details: Homo sapiens, 1 μg/ml, not shown
Procedure: (§1) Subsequently the cells were washed, counted and stimulated (10^5/well) in triplicate with plastic-immobilised NIP10-BSA conjugates (iNIP10-BSA) or plastic immobilised anti-CD3E mAb (ianti-CD3) in fresh CM alone or in the presence of the drugs (12). The plates were incubated at 37° C. in 5% CO2. After 20 hours supernatants were harvested and assayed for IL-2 activity using an ELISA kit (Genzyme Diagnostics, Cambridge, Mass.).

JN3S cells = experiment: IL-2 production of JN3S cells stimulated with iNIP10-BSA; assay type: cell-based, human; details: doxycycline at a concentration of less than 1 μg/ml
Procedure: as §1
The inventors next determined whether tetracycline-mediated suppression of the chTCR could induce a reversible state of antigen unresponsiveness in the transfected Jurkat cells. JLAV12S and JN3S cells were preincubated for 48 hours in increasing concentrations of Dox and Tet and then stimulated with immobilized NIP-BSA, following which their IL-2 production was measured.
FIGS. 5A and 5B are bar charts showing IL-2 production (in pg/ml) by transfected JLAV12S (5A) or JN3S (5B) cells stimulated with iNIP10-BSA in the absence or presence of Tet or Dox. Cells were preincubated for a 48 hours period in the absence or presence of the drugs (at the indicated concentration in ng/ml), washed and stimulated (10^5/well) with plastic immobilised NIP10-BSA conjugates (50 μg/ml) in fresh CM alone (solid bar) or in the presence of Tet (shaded bars) or Dox (open bars) at the indicated concentrations. One of two similar experiments is shown.

chTCR gene expression [1] = experiment: Regulation of surface chTCR expression by tetracyclines in JLAV12S (pLAV12-transfected Jurkat) cells, FACS; assay type: cell-based, human; details: for surface chTCRs down-regulated: 1 μg/ml; for surface chTCRs down-regulated / concentration for maximal repression: 48 hours
Procedure: (§2) The Jurkat T cell line (clone E6-l) was maintained in RPMI 1640 supplemented with 10% foetal calf serum (FCS), 2 mM L-glutamine, 100 U/ml penicillin, 100 μg/ml streptomycin and 25 mM HEPES buffer (all from GIBCO-BRL, Gaithersburg, Md.), referred to as complete medium (CM). To generate stable cell lines Jurkat cells were transfected with linearized plasmid DNA (10 μg) by electroporation, at […] and 960 μF, as described previously (13). Transfectants were selected in CM supplemented with 0.4 mg/ml of hygromycin B (Calbiochem, San Diego, Calif.). Stable cell lines were established after 3-4 weeks and analyzed by FACS for expression of the chTCR. To select a population of chTCR ζ expressing cells, stable Jurkat cells transfected with the linearized pLAV12 or pCEP4.aNIP.TCR ζ derived plasmid fragments were FACS sorted (see below). The resultant populations were cloned twice by limiting dilution and screened for protein expression by flow cytometry.
(§3) Expression of cell surface proteins was performed by standard direct immunofluorescence as described (14) using saturating amounts of FITC-conjugated antibodies. Dead cells were excluded from analysis using a combination of propidium iodide and forward light scatter. Appropriate FITC isotype-matched irrelevant Abs were used in all experiments. The samples were analysed with a FACScan® (Becton Dickinson, Mountain View, Calif.). A minimum of 20,000 cells was analysed for each sample. Subsequent re-analysis of data was performed using the CELLQuest software (version 1.2) (Becton Dickinson). Additionally, cells stained with FITC-conjugated goat antisera to mouse λ light chain were sorted under sterile conditions on a cell sorter (FACScalibur, Becton Dickinson).
To study the time-course of inactivation of gene expression, JLAV12S cells were analysed at different times after addition of the antibiotics at 1 μg/ml (FIG. 2B).
(§4) A dose-response curve of gene repression was determined using different concentrations of Tet or Dox. After 48 hours of treatment, the cells were harvested and the expression of the chTCR was studied by FACS analysis.
(§5) Stably transfected uncloned (JLAV12S, left hand column) and cloned (1F5, middle column; and 2E11, right hand column) Jurkat cell populations were cultured for 48 hours in the presence of different concentrations (0 ng/ml top row, 0.1 ng/ml second row, 1 ng/ml third row, and 10 ng/ml bottom row) of Tet (broken line) or Dox (solid line) and the surface expression of scFv-TCR ζ molecules was examined. Negative controls (FITC-conjugated goat antisera to mouse IgG) are overlaid (filled curve). The fluorescence channel number is plotted along the x axis, and the y axis represents the relative cell number.

JLAV12S and JN3S cells = details: 1 μg/ml, 48 hours; data not shown
chTCR gene expression [2] = experiment: Regulation of surface chTCR expression in cloned pLAV12 transfectants (1E5/1F5 and 2E11), FACS; assay type: cell-based, human
Procedure: as §2, §3
The selected population of pLAV12 transfectants (JLAV12S) was then cloned by limiting dilution and two subclones expressing the chTCR at low (2E11) and intermediate (IF5) levels (FIG. 3) were selected for further study.
as §4, §5

SMILES: C[C@H]1c2cccc(O)c2C(=O)C2=C(O)[C@]3(O)C(=O)C(C(N)=O)=C(O)[C@@H](N(C)C)[C@@H]3[C@@H](O)[C@@H]21 [doxycycline]
- inhibition at 1 µg/mL (Jurkat cells): 25%
- effect on IL-2 production upon stimulation with iNIP10-BSA conjugates (JN3S cells): no inhibitory effect
- surface chTCRs down-regulated (chTCR gene expression [1]; JLAV12S cells): 90%
- concentration for maximal repression (chTCR gene expression [1]; JLAV12S cells): greater than or equal to 1 ng/ml
- changes in cell viability (JLAV12S and JN3S cells): No changes
- level of chTCR as % of its maximal expression (chTCR gene expression [2]; 1E5 clone): about 10%
- level of chTCR as % of its maximal expression (chTCR gene expression [2]; 2E11 clone): ~20%
- concentration at which expression of chTCRs was maximally repressed (chTCR gene expression [2]; clonal populations 1E5 and 2E11, 48 hours): 100 pg/mL

SMILES: CN(C)[C@@H]1C(O)=C(C(N)=O)C(=O)[C@@]2(O)C(O)=C3C(=O)c4c(O)cccc4[C@@](C)(O)[C@H]3C[C@@H]12 [tetracycline]
- effect on IL-2 production upon stimulation with iNIP10-BSA conjugates (JN3S cells): no inhibitory effect
- surface chTCRs down-regulated (chTCR gene expression [1]; JLAV12S cells): 90%
- concentration for maximal repression (chTCR gene expression [1]; all the analysed cell lines): greater than or equal to 10 ng/ml
- concentration of maximum repression (chTCR gene expression [1]; in our system): 10 ng/mL
- level of chTCR as % of its maximal expression (chTCR gene expression [2]; 1E5 clone): about 10%
- level of chTCR as % of its maximal expression (chTCR gene expression [2]; 2E11 clone): ~20%
